The supplement of paper PMC5908809

How the values were obtained:
[1] = tested on: normal NK cells expanded with K562-aAPC; test: percent inhibition of viability; higher = more inhibition; conditions: 72 h, IL-2 2.5 ng/mL
Method: (§1)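 Drug sensitivity and resistance testing on K562-aAPC-expanded normal NK cells: 5 concentrations (10-fold steps over a 10,000-fold range), 72 h at 37 °C, viability by CellTiter-Glo normalised to DMSO and benzethonium chloride controls; DSS from the fitted curve.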

[2] = tested on: DERL-7 (IL-2 2.5 ng/mL); test: as above; conditions: 72 h
[3] = tested on: IMC-1 (IL-2 20 ng/mL); test: as above; conditions: 72 h
[4] = tested on: KAI3 (IL-2 2.5 ng/mL); test: as above; conditions: 72 h
[5] = tested on: KHYG-1 (IL-2 2.5 ng/mL); test: as above; conditions: 72 h
[6] = tested on: NK-92 (IL-2 2.5 ng/mL); test: as above; conditions: 72 h
[7] = tested on: NK-YS (IL-2 2.5 ng/mL); test: as above; conditions: 72 h
[8] = tested on: NKL (IL-2 2.5 ng/mL); test: as above; conditions: 72 h
[9] = tested on: SNK-6 (IL-2 2.5 ng/mL); test: as above; conditions: 72 h
[10] = tested on: YT (IL-2 2.5 ng/mL); test: as above; conditions: 72 h
[11] = tested on: normal primary NK cells, pool 1 (3 donors) (IL-2 2.5 ng/mL); test: as above; conditions: 72 h
[12] = tested on: normal primary NK cells, pool 1 (3 donors), resting (IL-2 0 ng/mL); test: as above; conditions: 72 h
[13] = tested on: normal primary NK cells, pool 2 (3 donors) (IL-2 2.5 ng/mL); test: as above; conditions: 72 h
[14] = tested on: normal primary NK cells, pool 3 (3 donors) (IL-2 2.5 ng/mL); test: as above; conditions: 72 h
[15] = tested on: normal NK cells expanded with K562-aAPC; test: drug sensitivity score (DSS) (DSS units); higher = more sensitive; extreme values may be limits of the assay; conditions: 72 h; IL-2 2.5 ng/mL
Method: as §1

[16] = tested on: DERL-7 (IL-2 2.5 ng/mL); test: as above; conditions: 72 h
[17] = tested on: IMC-1 (IL-2 20 ng/mL); test: as above; conditions: 72 h
[18] = tested on: KAI3 (IL-2 2.5 ng/mL); test: as above; conditions: 72 h
[19] = tested on: KHYG-1 (IL-2 2.5 ng/mL); test: as above; conditions: 72 h
[20] = tested on: NK-92 (IL-2 2.5 ng/mL); test: as above; conditions: 72 h
[21] = tested on: NK-YS (IL-2 2.5 ng/mL); test: as above; conditions: 72 h
[22] = tested on: NKL (IL-2 2.5 ng/mL); test: as above; conditions: 72 h
[23] = tested on: SNK-6 (IL-2 2.5 ng/mL); test: as above; conditions: 72 h
[24] = tested on: YT (IL-2 2.5 ng/mL); test: as above; conditions: 72 h
[25] = tested on: normal primary NK cells, pool 1 (3 donors) (IL-2 2.5 ng/mL); test: as above; conditions: 72 h
[26] = tested on: normal primary NK cells, pool 1 (3 donors), resting (IL-2 0 ng/mL); test: as above; conditions: 72 h
[27] = tested on: normal primary NK cells, pool 2 (3 donors) (IL-2 2.5 ng/mL); test: as above; conditions: 72 h
[28] = tested on: normal primary NK cells, pool 3 (3 donors) (IL-2 2.5 ng/mL); test: as above; conditions: 72 h

Cn1cc(-c2ccc3nnc(Sc4ccc5ncccc5c4)n3n2)cn1 [SGX-523] (max concentration tested 5000 nM)
percent inhibition of viability [%]
Conditions	0.5 nM	5 nM	50 nM	500 nM	5000 nM
[1]	-2.93	-10.2	-5.18	-9.17	-2.25
[2]	3.14	1.32	-1.44	5.03	14.4
[3]	-3.56	-0.25	-5.07	-2.74	-1.91
[4]	-4.24	-1.01	0.45	4.1	9.78
[5]	-5.57	-5.37	-9.26	-3.51	-7.2
[6]	0.34	-0.3	-4.47	-3.94	1.25
[7]	1.09	-7.03	-6.25	-1.89	-5.01
[8]	3.77	-3.27	-2.38	-4.59	3.26
[9]	3.69	0.4	-1.97	8.43	7.74
[10]	-2.71	-0.74	-1.93	1.35	-0.07
[11]	-8.19	-11.2	-7.5	-10.9	5.13
[12]	-11.2	-4.96	17.1	10.2	32.6
[13]	1.04	-8.92	-3.62	-0.26	11.5
[14]	3.88	-2.63	1.81	1.46	11.1

Conditions	drug sensitivity score
[15]	0.89
[16]	0.58
[17]	0.89
[18]	0
[19]	0.89
[20]	0
[21]	0
[22]	0
[23]	0
[24]	0
[25]	0
[26]	2.87
[27]	0.02
[28]	0.04

Cc1nc(N)sc1-c1ccnc(Nc2ccc(N3CCOCC3)cc2)n1 [CYC-116] (max concentration tested 10000 nM)
percent inhibition of viability [%]
Conditions	1 nM	10 nM	100 nM	1000 nM	10000 nM
[1]	-2.89	-0.2	2.84	57.5	82
[2]	-3.32	-3.55	6.03	60.9	84.2
[3]	-0.53	-4.65	3.54	44.8	83.8
[4]	-1.55	-6.85	1.16	39.8	89.7
[5]	-0.11	-0.55	5.34	70.7	106
[6]	-10.5	-10.4	3.17	39.8	72.8
[7]	-2.66	-0.98	6.79	70.6	70.8
[8]	-16	-8.68	-5.36	42.6	83.9
[9]	0.9	-6.56	15.3	73.9	72.3
[10]	0.75	1.77	4.66	29.5	94.7
[11]	-7.14	-2.39	-10.8	13.2	71.7
[12]	-4.6	6.4	-9.95	-18.7	23.6
[13]	-11.2	-13.2	-3.79	16.1	68.8
[14]	-12.5	-8.65	4.23	3.35	71.4

Conditions	drug sensitivity score
[15]	11.5
[16]	12.4
[17]	9.98
[18]	10.1
[19]	14.2
[20]	8.76
[21]	14.1
[22]	9.96
[23]	16
[24]	9.36
[25]	6.12
[26]	0.44
[27]	6.33
[28]	4.4

CN(C)C[C@@H]1CCn2cc(c3ccccc32)C2=C(C(=O)NC2=O)c2cn(c3ccccc23)CCO1 [Ruboxistaurin] (max concentration tested 10000 nM)
percent inhibition of viability [%]
Conditions	1 nM	10 nM	100 nM	1000 nM	10000 nM
[1]	-0.21	-2.52	9.41	31.6	99.7
[2]	-1.56	1.57	18.1	40.6	99.9
[3]	-5.42	-4.44	-4.88	-32.9	100
[4]	0.82	1.03	11.8	32	93.8
[5]	1.18	0.63	1.33	34	98.9
[6]	-3.12	-11.3	-3.13	2.96	98.9
[7]	0.95	-3.62	0.25	24.6	97.6
[8]	-0.55	-7.15	3.58	36.2	93.1
[9]	-9.54	1.49	-3.03	4.61	99.9
[10]	0.39	0.99	-3.02	5.34	96
[11]	-7.03	-9.34	0.45	29	99.8
[12]	-16.4	-10.1	-8.8	45.3	99.1
[13]	-17.6	-5.86	-4.21	13.1	100
[14]	-10.5	-8.66	0.81	14.8	99.8

Conditions	drug sensitivity score
[15]	9.52
[16]	10.5
[17]	4.21
[18]	8.93
[19]	10.2
[20]	5.89
[21]	9.16
[22]	9.73
[23]	6.19
[24]	6.1
[25]	9.78
[26]	11.2
[27]	7.72
[28]	7.99

CNC(=O)c1nn(C)c2c1C(C)(C)Cc1cnc(Nc3ccc(N4CCN(C)CC4)cc3)nc1-2 [Milciclib] (max concentration tested 10000 nM)
percent inhibition of viability [%]
Conditions	1 nM	10 nM	100 nM	1000 nM	10000 nM
[1]	4.02	-0.67	11	58	101
[2]	3.27	-10.3	4.85	67.1	98.4
[3]	-3.68	-8.88	-4.95	-5.54	101
[4]	2.07	-4.15	13.3	40	103
[5]	0.72	0.82	16.2	88.3	108
[6]	-4.06	-2.4	1.56	39	101
[7]	-3.1	-3.45	7.23	40.2	103
[8]	-13.6	-18.8	-12.2	37.9	106
[9]	2.94	-5.15	-12.8	17.8	93.1
[10]	1.63	0.13	-0.36	21	106
[11]	-4.67	-0.64	-2.17	41.2	94.1
[12]	-2.66	2.94	14.9	61.7	88.7
[13]	-6.1	-7.12	7.61	55.9	96.4
[14]	-13.5	-12.3	-7.15	27.3	98.8

Conditions	drug sensitivity score
[15]	12.8
[16]	13.6
[17]	5.2
[18]	10.3
[19]	18.2
[20]	10.8
[21]	10.9
[22]	10.7
[23]	8.04
[24]	8.93
[25]	10.6
[26]	13.5
[27]	12.2
[28]	9.53
